Measurements as given in a melting point compilation (Tetko et al.; mined from patent text by program, amines drawn as free bases though some values may be those of a salt).

First: O=c1c2c(nc3ccc(Cl)cn13)C(=Cc1ccccc1Cl)CC2
Second: CC(=O)c1cccc2c1CCc1ccccc1C2=O
The melting point of the first is higher: 249 to 250 °C for the first, 65 to 68 °C for the second.

First: O=C1CCC(N2C(=O)c3cccc(CNC(=O)c4cnccn4)c3C2=O)C(=O)N1 (stereo not given)
Second: CC1CCC(=NNc2ccccc2)c2ncc(Br)c(=O)n21 (stereo not given)
The melting point of the first is higher: greater than 260 °C for the first, 190 to 192 °C for the second.

First: COc1ccc(C(=O)Nc2c(Cl)cncc2Cl)cc1OC1COCC1OC (stereo not given)
Second: COc1cc(O)c(C(=O)C=Cc2ccc(C)o2)c(OC)c1
The melting point of the first is higher: 175 to 177 °C for the first, 103 °C for the second.

Compared with `Nc1c(O)c2ccccc2oc1=O`, `COc1ccc2oc(N)c(C(N)=O)c(=O)c2c1` is lower in melting point: 400 °C for the first, 270 °C for the second.

First: O=S(=O)(Nc1cccnc1Nc1ccccc1)c1ccc(Cl)cc1
Second: COc1ccccc1CNc1ccc2cc(Nc3ccccn3)ccc2n1
The melting point of the first is higher: 186 to 188 °C for the first, 134 °C for the second.

First: CCCCCCCCCCCCS(=O)(=O)CCOc1ccc(C/C=C(\OC(=O)CC)C(F)(F)F)cc1
Second: CCCCCS(=O)(=O)NC(=O)/C=C/c1ccc(OCCC(C)(C)O)cc1Oc1ncc(C(F)(F)F)cc1Cl
The melting point of the first is lower: 60 to 63 °C for the first, 136 °C for the second.

First: OC(CCNCc1ccccc1)(c1ccccc1)c1ccccc1
Second: CCCCc1nc2cccc(C(=O)O)c2n1Cc1ccc(-c2ccccc2-c2nnnn2C(c2ccccc2)(c2ccccc2)c2ccccc2)cc1
The melting point of the first is higher: 145 to 146 °C for the first, 120 to 123 °C for the second.

Compared with `COC(=O)c1cn2c(-c3ccc4ccccc4c3)csc2n1`, `CCOC(=O)c1cn(-c2cnc3ccccc3c2)cn1` is lower in melting point: 187 to 188 °C for the first, 170 to 171 °C for the second.

First: O=c1c2c(c1=O)Nc1cc(Cl)c(Cl)cc1N2
Second: O=C1NC(=O)C(CC#Cc2ccc(Cl)cc2)(Sc2nc3cc(Cl)ccc3s2)S1 (stereo not given)
The melting point of the first is higher: greater than 360 °C for the first, 187 to 188 °C for the second.

Compared with `CSc1ccc2c(c1)N(CCCN1CCC(C(O)F)CC1c1ccccc1)c1ccccc1S2` (stereo not given), `O=C(NCCCCCn1cnc2cnc3ccccc3c21)c1ccccc1` is higher in melting point: 60 °C for the first, 172 °C for the second.

First: COC(=O)ON(C)C(=O)C(C)Nc1c([N+](=O)[O-])cc(C)cc1[N+](=O)[O-] (stereo not given)
Second: CCCN(CCC)c1c([N+](=O)[O-])cc(C)c(C)c1[N+](=O)[O-]
The melting point of the first is higher: 112 to 113 °C for the first, 42 to 43.5 °C for the second.

First: COc1ccc(C2(C#N)CCC(=NO)CC2)cc1OCC1CC1 (stereo not given)
Second: CCC(=O)C1=C(O)CC(c2ccc3c(c2)CCC3)CC1=O (stereo not given)
The melting point of the first is lower: 75 to 77 °C for the first, 98 °C for the second.

First: Cc1cccc(C(=O)Nc2c[nH]nc2C(=O)NCCC#N)n1
Second: CCOC(=O)CNC(=O)c1n[nH]cc1NC(=O)c1cccc(C)n1
The melting point of the first is lower: 225 to 227 °C for the first, 228 to 229 °C for the second.

First: NC(=NO)c1c(F)cccc1C(F)(F)F
Second: CCc1c(O)cccc1O
The melting point of the first is higher: 155 to 157 °C for the first, 58 to 59 °C for the second.

Compared with `CC(=O)OC1CC2CCC3C4CC(N5CCCCC5)C(=O)C4(C)CCC3C2(C)CC1N1CCCCC1` (stereo not given), `O=C1C[C@H]2CCCC[C@]23c2cccn2CCN13` (relative stereo) is lower in melting point: 154 °C for the first, 122 to 123 °C for the second.

Compared with `CN(C)CCOc1ccc2[nH]c(C(=O)N3CC(CCl)c4c3cc(N)c3ccccc43)cc2c1` (stereo not given), `CCOC(=O)c1cc(C(=O)c2ccccc2Cl)c(-n2c(C)nnc2CNC(=O)c2cc3ccccc3[nH]2)s1` is lower in melting point: greater than 250 °C for the first, 135 to 140 °C for the second.

First: CN(C)Cc1ccc(CSCCN=CNC#N)o1
Second: CCCCCCNC(=S)NC(=O)c1ccc(C#N)cc1
The melting point of the first is lower: 74 to 76 °C for the first, 95 to 96 °C for the second.

Compared with `CNC(=O)NC1(C)CCCc2sccc21` (stereo not given), `CC(=CC(=O)c1cccs1)N1CCCC1` is higher in melting point: 135 to 145 °C for the first, 154 to 156 °C for the second.

Compared with `O=C(Nc1nc(C(Cl)(Cl)Cl)ns1)c1ccccc1`, `CCc1cn(C2CC(O)C(CN=[N+]=[N-])O2)c(=O)nc1NC(=O)c1ccccc1` (stereo not given) is lower in melting point: 190 °C for the first, 125 to 126 °C for the second.

First: COc1ccc(N2CCN(Cc3coc4ccccc34)CC2)cc1
Second: Oc1ccc(OCCN2CCN(c3ccccc3)CC2)cc1
The melting point of the first is higher: 110 to 112 °C for the first, 95 to 100 °C for the second.

First: N#CCCNC(=O)c1cccc(-c2ccc3c(n2)N(Cc2ccc(Cl)cc2Cl)CC3)c1
Second: O=C(Nc1cccc(S(=O)(=O)N2CCCC2)c1)c1cnn2c(C(F)(F)F)cc(-c3ccc(C(F)(F)F)cc3)nc12
The melting point of the first is lower: 156 to 157 °C for the first, 241 °C for the second.

First: CCOC(=O)n1cc(C#N)c(-c2cccc(Cl)c2F)c1
Second: CCCn1cc(C(=O)OCC)c(C(=O)OCC)c1N1C(=O)c2ccccc2C1=O
The melting point of the first is higher: 149 °C for the first, 100 to 101 °C for the second.

Compared with `C=CCc1c[nH]c2c([N+](=O)[O-])cccc2c1=O`, `O=[N+]([O-])c1cc(Br)ccc1N1CCc2ccccc21` is lower in melting point: 242 °C for the first, 100 to 102 °C for the second.

First: Cc1sc2c(Cl)c(Cl)c(OCC(=O)O)cc2c1C
Second: Cc1csc2c(Br)cc3cc(C(=O)O)[nH]c3c12
The melting point of the first is lower: 218 to 219 °C for the first, 229 to 241 °C for the second.

Compared with `COc1ccc2cc(C#N)ccc2n1`, `COc1ccc(Cc2ccc(Sc3ccccc3)s2)cc1` is lower in melting point: 163 to 165 °C for the first, 92 to 93 °C for the second.

Compared with `CCC(Oc1ccc(C(C)(C)CC(C)(C)C)cc1)C(=O)Nc1ccc(Cl)c(Nc2cc(=O)n(-c3c(Cl)cc(Cl)cc3Cl)[nH]2)c1` (stereo not given), `CON(C)C(=O)Nc1ccc(OCc2ccc(C(C)C)cc2)cc1` is lower in melting point: 163 to 165 °C for the first, 87.5 to 88 °C for the second.

First: Cc1nnc(-c2ccnc(Nc3ccccn3)c2)o1
Second: c1ccc(-c2nnc3cc(C45CCC(CC4)C5)c(OCc4ccccn4)nn23)cc1
The melting point of the first is higher: 196 to 197 °C for the first, 166 to 168 °C for the second.

First: COc1ccc(C)cc1C(=O)NCCc1ccc(CC(=O)O)cc1
Second: COc1ccc(Cc2cnc(N)nc2N)cc1OCCNS(=O)(=O)c1ccc(N)cc1
The melting point of the first is lower: 148 to 150 °C for the first, 207 to 208 °C for the second.

Compared with `CCCCCS(=O)(=O)NC(=O)OCc1ccc(OCCOC)cc1Oc1ncc(C(F)(F)F)cc1Cl`, `CCOC(=O)c1cc2cc(OCCOC)cc(NS(=O)(=O)c3cccs3)c2[nH]1` is lower in melting point: 130 to 132 °C for the first, 106 to 107 °C for the second.

First: Cc1nc(NCC(C)C)sc1C(=O)c1ccc(N)c([N+](=O)[O-])c1
Second: CS(=O)(=O)Nc1ccc(Cl)c([N+](=O)[O-])c1
The melting point of the first is higher: 210 to 215 °C for the first, 163 °C for the second.

Compared with `Nc1cc(-c2ccc(CO)o2)nn1Cc1ccccc1`, `ClC(Cl)=Cc1ccc(OCc2ccccc2)cc1` is lower in melting point: 163 °C for the first, 74.5 to 76.5 °C for the second.

Compared with `COC(=O)c1cc([N+](=O)[O-])c[nH]1`, `COC(=O)c1nnn(Cc2ccccc2F)c1C(=O)OC` is higher in melting point: 196 to 197 °C for the first, 203 to 205 °C for the second.

Compared with `CCN(CC)c1ccc(-c2cc(-c3ccc(C(=O)O)cc3)ccc2CCCNC2CCCC2)cc1C(C)(C)C`, `CCN(CC)C(=O)Oc1c(N2CCCC2)c(=O)n(-c2ccccc2)c2ncccc12` is lower in melting point: 255 °C for the first, 158 to 160 °C for the second.

First: CC1(C)N=C(S)N=C(N)N1
Second: CCOCc1nc2c(N)nc(C)c(C)c2n1CCOCCCc1cncnc1
The melting point of the first is higher: 186 to 188 °C for the first, 127 to 129 °C for the second.

Compared with `CC(C)(CCCC(C(O)C(C)(C)C)n1cncn1)c1ccccc1` (stereo not given), `CCCN(CO)c1nc(NCc2ccccc2)c2nc(Cl)n(C(C)C)c2n1` is higher in melting point: 98 to 99 °C for the first, 220 to 223 °C for the second.

`O=c1c(CCC(O)c2ccncc2)cc2cccnc2n1-c1cccc([N+](=O)[O-])c1` (stereo not given) and `Cn1c(-c2ccccc2)cc(=O)c2cc(C(=O)O)ccc21` cannot be ordered by melting point: 235 to 236 °C for the first, greater than 30 °C for the second.

First: Cc1c(C=NO)c2ccccc2n1-c1ccc(O)c(F)c1
Second: Oc1ccc(-c2cc3ccccc3[nH]2)c(O)c1
The melting point of the first is lower: 182 to 184 °C for the first, 188 °C for the second.

First: CC1=CCc2cccc(OCC3CN(C(C)C)CCO3)c21 (stereo not given)
Second: COc1ccc2[nH]c(S(=O)Cc3ncc(C)c(N4CCCC4)c3Cl)nc2c1 (stereo not given)
The melting point of the first is lower: 114 to 116 °C for the first, 145 to 146 °C for the second.

Compared with `C[C@@H](O)Cn1ncc2ccc(O)c(Br)c21`, `Cn1ncc(S(=O)Cc2ccccc2)c(Cl)c1=O` (stereo not given) is lower in melting point: 134 to 136 °C for the first, 129 to 131 °C for the second.

Compared with `CN1Cc2c(C(N)=O)ncn2-c2ccccc2C1=O`, `CN1Cc2c(-c3noc(CCl)n3)ncn2-c2ccc(Cl)cc2C1=O` is lower in melting point: 274 to 275 °C for the first, 229 °C for the second.

Compared with `CC(=O)NC[C@H]1CN(c2ccc(N=C=S)c(F)c2)C(=O)O1`, `CC1CN(c2ccc(NC=C3C(=O)NC(=O)c4ccc(Br)cc43)cc2)CC(C)N1` (stereo not given) is higher in melting point: 172 to 176 °C for the first, 229 to 230 °C for the second.

First: O=Cc1coc2cc(OCCCN3CCC(c4noc5cc(F)ccc45)CC3)ccc2c1=O
Second: CCCCOc1c(CO)n(CC(C)(C)C)c(=O)c2ccc(OCC)cc12
The melting point of the first is higher: 163 to 165 °C for the first, 92.5 to 93 °C for the second.

Compared with `Cc1cn2nc(SCc3ccccc3)nc2nc1Cl`, `CC1=C(C(=O)O)C(c2ccccc2Cl)C(c2cccs2)=NN1` (stereo not given) is higher in melting point: 179 to 181 °C for the first, 188 °C for the second.

Compared with `CCOC(=O)c1nc2scc(NC(=O)Cc3ccccc3)c2c(=O)[nH]1`, `CC(C)(OCc1cc2nc(Cl)ccc2n1S(=O)(=O)c1cccc(Cl)c1Cl)C(=O)O` is lower in melting point: 237 °C for the first, 174 °C for the second.

First: CC(C)n1cc(-c2ccc(Oc3ccccc3)cc2)c2c(N)ncnc21
Second: CCOC(=O)C(Cc1ccc(OCCN2CCC(C)(C)c3cc(C(=O)c4ccccc4)ccc32)cc1)Nc1ccccc1C(=O)c1ccccc1 (stereo not given)
The melting point of the first is higher: 155 to 156 °C for the first, 75 to 77 °C for the second.

Compared with `CC(C)(C)OOC(C)(CCC(=O)N(N)C(=O)OCCOCCOC(=O)N(N)C(=O)CCC(C)(OOC(C)(C)C)OOC(C)(C)C)OOC(C)(C)C`, `CC(C)(C)OC(=O)C(=[N+]=[N-])C(=O)CO` is lower in melting point: 45 to 50 °C for the first, 35 °C for the second.

First: COc1cc(C)nc(NC(=O)NS(=O)(=O)N(C)S(C)(=O)=O)n1
Second: Cc1cc(C)n(C)c(=O)c1C(=O)O
The melting point of the first is lower: 118 to 120 °C for the first, 200 to 204 °C for the second.

First: CCc1[nH]c2cc(C)c(Oc3ccc(OC(F)(F)F)cc3)cc2c(=O)c1C
Second: COc1ccc(Cn2nnnc2C(=O)Nc2cc(OCCCOc3ccc(C(C)=O)c(O)c3CCC(F)(F)F)c(Br)cc2C)cc1
The melting point of the first is higher: 281 to 283 °C for the first, 140 to 142 °C for the second.

First: CC(C)C(S)C(=O)NC1(C(=O)NC(Cc2ccc(-c3ccsc3)nc2)C(=O)O)CCCC1 (stereo not given)
Second: CCC1(O)CC(=O)OCc2c1cc1n(c2=O)Cc2c-1nc1ccccc1c2CCC(C)C (stereo not given)
The melting point of the first is lower: 215 to 217 °C for the first, 263 °C for the second.

Compared with `O=C1c2ccccc2C(=O)N1CCCSc1nccc(NC(=S)NCC(F)(F)F)n1`, `CCCc1c(OCC(O)COc2ccc(C(=O)O)cc2Cl)ccc(C(C)=O)c1O` (stereo not given) is lower in melting point: 214 to 215 °C for the first, 100 to 103 °C for the second.
